Laboratory results as given in patent US10842727B2, “Cosmetic composition comprising white rose flower extract for skin whitening and improving skin wrinkle” (CHUNGBUK NATIONAL UNIVERSITY INDUSTRY-ACADEMIC COOPERATION …, priority 2014, dated 2020).

Legend:
[1] = test system: collagen matrix metalloproteinase-1 (MMP-1); assay: Collagen matrix metalloproteinase-1 (MMP-1) activity inhibition, collagenase type-1 on bovine tendon collagen, ninhydrin absorbance 600 nm; format: biochemical; details: method of Example 3
Experimental: As part of measuring a wrinkle alleviation effect of the white rose petal extract, effects of inhibiting activity of collagen matrix metalloproteinase-1 (MMP-1) of the extracts were measured with reference to the guideline of “beauty-related functional tests (pp. 821-858)” of Korea health official compendium research society foundation.
When simply describing the effect, 25 mg of bovine tendon collagen was dissolved in a 0.05 M tris(hydroxymethyl)-methyl-2-aminoethane sulfonate (TES) buffer and then left for 15 minutes at 37° C. Next, a test material for each concentration was added and then additionally reacted with collagenase type-1 for 5 hours at 37° C. 0.2 mL of a reaction solution was taken and added to 1 mL of a buffer [4% ninhydrin in methyl cellosolve (2-methoxyethanol)+0.2 M sodium citrate with 0.71 mM stannous chloride]. The reaction solution was boiled for 20 minutes, added with n-propanol, and then left for 15 minutes and then absorbance was measured at 600 nm. On the basis of a change in absorbance when only the buffer without the white rose fractions was added as a reference (100%), reduction of the absorbance caused by the white rose fractions for each concentration was represented by an inhibition rate.

mushroom tyrosinase = assay: Melanin synthase (tyrosinase) inhibition with L-DOPA, absorbance 475 nm; format: biochemical; details: method of Example 4
Experimental: Meanwhile, in order to measure a skin whitening effect of the white rose petal extract, an effect of inhibiting activity of tyrosinase as melanin synthase was measured with reference to the guideline of “beauty-related functional tests (pp. 821-858)” of Korea health official compendium research society foundation. […] In this case, on the basis of a change in absorbance when only the buffer without the white rose fractions was added as a reference (100%), reduction of the absorbance caused by the white rose fractions for each concentration was represented by an inhibition rate.

B16 mouse melanoma cells = assay: Melanin synthesis inhibition in α-MSH-treated cells; format: cell-based; details: method of Example 5
Experimental: In order to more definitize a skin whitening effect of the white rose petal extract, the inventors measured a melanin synthesis inhibitory effect of the white rose petal extract at a cell level with reference to the guideline of “beauty-related functional tests (pp. 821-858)” of Korea health official compendium research society foundation (2004).
When simply describing this, B16 mouse melanoma cells were dispensed to 1×10^4 cells/well (0.5 mL) in a […] plate and cultured for 24 hours. The B16 mouse melanoma cells was treated with the white rose fraction for each concentration and a α-melanocyte stimulating hormone (MSH) and additionally cultured for 3 days at 37° C. The cells were lysed by adding 0.15 mL of 1 M NaOH to a culture medium and boiled for 5 minutes to elute the melanin. 0.1 mL of the eluate was taken and absorbance at 490 nm was measured. A standard calibration curve was created by synthetic melanin and the concentration was quantified and an inhibition rate for each concentration of the white rose fraction was proposed based on a melanin production amount when the sample was not treated as a reference (100%).

Compound: COc1c(CC=C(C)C)c(O)c2c(=O)c3c(O)ccc(OC)c3oc2c1CC=C(C)C [3,5-di-o-methyl-gartanin]
- inhibition effect of MMP-1 (in words) [1]: particularly excellent inhibition effect of MMP-1
- tyrosinase inhibition activity (in words) (mushroom tyrosinase): excellent tyrosinase inhibition activity
- melanin synthesis inhibitory effect (in words) (B16 mouse melanoma cells): efficiently inhibited
